Data as given in patent US7795290B2 (Genentech, Inc., priority 2004, dated 2010).

Assays:
Test in all cases: HTS ATP-utilizing enzyme assay, off-chip mobility-shift (Caliper HTS 250)
Assay type in all cases: biochemical
Details in all cases: kinase named = inhibitory activity/selectivity; test compound 10 μM; active = greater than three-sigma from mean
GSK-3-α = GSK-3-α (Homo sapiens, UniProt P49840)
Source text: (§1) The following procedures describe the reagent and plate preparation for a HTS of an ATP-utilizing enzyme, such as a protein kinase, run in an off-chip mobility-shift assay format. The following provides an HTS protocol for running a protein kinase HTS screen on a Caliper HTS 250 microfluidics system. The following parameters are dependent on the protein kinase used and can be determined by one skilled in the art as part of a typical assay development process. For example, the peptide substrate used can be identified from the current literature, by screening a peptide library of potential protein kinase substrates, or by other applicable means accepted in the field.
(§2) Assays to determine the kinase inhibitory activity of chemical entities of the present disclosure were performed using a Caliper HTS 250 microfluidics device, Greiner U-bottom assay plates, a Multidrop for transfer of reagents, and Biomek FX (AMNCBM03) software. Initially, 2.4 μL of a 1 mM solution of a test compound in 100% DMSO was added to a well of the Greiner U-bottom plate. A single Greiner U-bottom plate having 24×16 wells could include multiple test compounds. Next, 40 μL of 1.06× Assay Buffer was added to each well of the assay plate. Using the Biomek FX, 10 μL of 0.5 M EDTA was added by the span-8 to wells, indicated as 100% Control and 2.4 μL of 100% DMSO was added by the span-8 to wells, indicated as 0% Control. Using the Multidrop, 10 μL of 2.5× Enzyme Buffer, followed by 10 μL of 2.5× Substrate Buffer was added to each well of the assay plate. The total reaction volume in each well was 25 μL, and the concentration of the test compound was 10 μM. The assay plate was incubated for 2.5 hrs at 20° C. to 22° C. After the incubation period, using the Multidrop, 45 μL of 1.55× Termination Buffer was added to each well of the assay plate to stop the reaction. The inhibition of the ATP-utilizing enzyme, such as a particular protein kinase, was determined by measuring the ratio of the peptide substrate to phosphorylated product for each well of the assay plate using the Caliper HTS 250 system.
(§3) The use of three-sigma statistical limits represents a conservative method for declaring potential hits among targets. The three-sigma activity, as well as the mean population activity, can be different for each target enzyme. This method has an expected false positive rate, from an in-control measurement process, of […].
(§4) Each chemical entity listed in Table 2 was tested for protein kinase inhibitory activity according to the biological assays and definitions of protein kinase inhibitory activity as described herein. For each exemplary compound listed in Table 2, the inhibitory activity for at least one protein kinase according to the biological assays and definitions of protein kinase inhibitory activity as described herein is indicated.

AURORA-A = target: T1, AURORA-A (Homo sapiens, UniProt O14965)
T1 sequence (O14965 1-403): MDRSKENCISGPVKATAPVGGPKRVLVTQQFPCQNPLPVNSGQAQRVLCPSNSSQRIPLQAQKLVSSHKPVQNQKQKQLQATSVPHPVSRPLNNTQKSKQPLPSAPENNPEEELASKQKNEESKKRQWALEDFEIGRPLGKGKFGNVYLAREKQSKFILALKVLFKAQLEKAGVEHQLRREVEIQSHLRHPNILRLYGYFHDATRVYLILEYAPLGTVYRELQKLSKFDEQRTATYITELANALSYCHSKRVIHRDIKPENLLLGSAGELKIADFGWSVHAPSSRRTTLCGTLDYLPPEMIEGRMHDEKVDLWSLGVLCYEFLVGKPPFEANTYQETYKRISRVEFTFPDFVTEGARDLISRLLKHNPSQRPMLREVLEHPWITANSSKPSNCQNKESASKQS
Source text: as §1, §2, §3, §4

AKT1 = target: T2, AKT1 (Homo sapiens, UniProt P31749)
T2 construct: purchased Upstate 14-276
Outline: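 AKT1 activity was measured by off-chip mobility shift (Caliper HTS 250) as the ratio of peptide substrate to phosphorylated product. Test compound was at 10 μM, with 2.5 h incubation at 20–22° C. EDTA wells served as 100% control and DMSO wells as 0%. Hits were called at three-sigma limits.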

CHEK2 = CHEK2 (Homo sapiens, UniProt O96017)
Source text: as §1, §2, §3, §4

KIT = KIT (Homo sapiens, UniProt P10721)
Source text: as §1, §2, §3, §4

ZAP70 = target: T3, ZAP70 (Homo sapiens, UniProt P43403)
T3 sequence (P43403 1-619): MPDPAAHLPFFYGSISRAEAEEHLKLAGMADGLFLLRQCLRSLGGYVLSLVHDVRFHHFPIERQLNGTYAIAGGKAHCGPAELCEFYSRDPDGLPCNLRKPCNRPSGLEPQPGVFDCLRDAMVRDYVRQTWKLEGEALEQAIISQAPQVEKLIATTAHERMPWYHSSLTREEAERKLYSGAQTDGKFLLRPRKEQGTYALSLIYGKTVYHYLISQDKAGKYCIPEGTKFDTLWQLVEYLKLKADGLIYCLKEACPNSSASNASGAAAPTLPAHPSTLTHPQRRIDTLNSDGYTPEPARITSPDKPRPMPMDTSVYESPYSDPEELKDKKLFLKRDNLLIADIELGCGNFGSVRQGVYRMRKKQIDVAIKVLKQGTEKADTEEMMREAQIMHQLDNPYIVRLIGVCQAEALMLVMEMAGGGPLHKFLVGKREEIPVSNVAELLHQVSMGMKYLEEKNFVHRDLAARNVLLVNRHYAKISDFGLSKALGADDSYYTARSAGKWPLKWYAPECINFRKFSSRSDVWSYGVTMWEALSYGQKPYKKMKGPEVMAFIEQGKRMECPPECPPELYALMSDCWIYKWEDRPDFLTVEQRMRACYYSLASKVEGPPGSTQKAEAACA
Source text: as §1, §2, §3, §4

DYRK2 = target: T4, DYRK2 (Homo sapiens, UniProt Q92630)
T4 sequence (Q92630 1-601): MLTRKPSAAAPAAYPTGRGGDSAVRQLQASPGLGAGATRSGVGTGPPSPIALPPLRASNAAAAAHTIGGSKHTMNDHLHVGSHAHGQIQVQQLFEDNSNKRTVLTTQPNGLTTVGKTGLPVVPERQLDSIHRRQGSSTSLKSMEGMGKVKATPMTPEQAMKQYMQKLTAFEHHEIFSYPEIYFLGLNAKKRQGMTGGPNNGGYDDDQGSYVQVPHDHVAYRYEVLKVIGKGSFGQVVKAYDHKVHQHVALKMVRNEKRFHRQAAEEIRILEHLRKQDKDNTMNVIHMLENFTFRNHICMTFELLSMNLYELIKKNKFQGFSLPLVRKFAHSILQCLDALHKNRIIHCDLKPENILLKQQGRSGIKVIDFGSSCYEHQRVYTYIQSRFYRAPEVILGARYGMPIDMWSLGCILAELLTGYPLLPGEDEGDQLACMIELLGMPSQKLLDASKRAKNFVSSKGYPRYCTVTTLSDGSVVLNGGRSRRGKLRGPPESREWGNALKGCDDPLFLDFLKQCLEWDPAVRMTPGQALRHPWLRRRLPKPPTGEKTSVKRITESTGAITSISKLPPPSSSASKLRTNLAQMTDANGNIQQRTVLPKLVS
Source text: as §1, §2, §3, §4

Sequence of KIT (P10721 26-976): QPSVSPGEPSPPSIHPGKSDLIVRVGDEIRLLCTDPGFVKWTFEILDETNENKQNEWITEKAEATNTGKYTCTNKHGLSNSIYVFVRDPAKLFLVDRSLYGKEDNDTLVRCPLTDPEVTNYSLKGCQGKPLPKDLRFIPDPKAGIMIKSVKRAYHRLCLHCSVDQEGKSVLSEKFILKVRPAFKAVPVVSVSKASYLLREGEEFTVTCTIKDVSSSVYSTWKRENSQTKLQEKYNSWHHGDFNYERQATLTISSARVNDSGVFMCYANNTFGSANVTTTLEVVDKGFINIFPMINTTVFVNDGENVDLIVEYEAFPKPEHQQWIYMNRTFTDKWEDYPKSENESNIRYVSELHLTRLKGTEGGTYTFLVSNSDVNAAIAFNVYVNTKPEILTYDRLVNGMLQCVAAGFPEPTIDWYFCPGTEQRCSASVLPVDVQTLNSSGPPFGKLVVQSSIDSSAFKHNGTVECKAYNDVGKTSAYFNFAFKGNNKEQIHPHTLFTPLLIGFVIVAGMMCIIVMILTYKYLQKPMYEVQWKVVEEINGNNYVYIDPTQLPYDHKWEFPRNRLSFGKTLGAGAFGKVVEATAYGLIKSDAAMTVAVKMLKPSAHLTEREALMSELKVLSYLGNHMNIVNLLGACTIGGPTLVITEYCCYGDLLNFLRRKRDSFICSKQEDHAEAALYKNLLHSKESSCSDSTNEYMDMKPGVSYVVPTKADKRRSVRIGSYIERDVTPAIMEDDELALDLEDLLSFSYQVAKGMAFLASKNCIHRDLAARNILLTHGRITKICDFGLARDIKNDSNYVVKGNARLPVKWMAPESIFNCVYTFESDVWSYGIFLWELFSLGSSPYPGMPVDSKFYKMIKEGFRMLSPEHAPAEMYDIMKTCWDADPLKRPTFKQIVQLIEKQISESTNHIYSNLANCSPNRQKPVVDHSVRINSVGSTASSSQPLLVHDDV
Sequence of CHEK2 (O96017 whole entry): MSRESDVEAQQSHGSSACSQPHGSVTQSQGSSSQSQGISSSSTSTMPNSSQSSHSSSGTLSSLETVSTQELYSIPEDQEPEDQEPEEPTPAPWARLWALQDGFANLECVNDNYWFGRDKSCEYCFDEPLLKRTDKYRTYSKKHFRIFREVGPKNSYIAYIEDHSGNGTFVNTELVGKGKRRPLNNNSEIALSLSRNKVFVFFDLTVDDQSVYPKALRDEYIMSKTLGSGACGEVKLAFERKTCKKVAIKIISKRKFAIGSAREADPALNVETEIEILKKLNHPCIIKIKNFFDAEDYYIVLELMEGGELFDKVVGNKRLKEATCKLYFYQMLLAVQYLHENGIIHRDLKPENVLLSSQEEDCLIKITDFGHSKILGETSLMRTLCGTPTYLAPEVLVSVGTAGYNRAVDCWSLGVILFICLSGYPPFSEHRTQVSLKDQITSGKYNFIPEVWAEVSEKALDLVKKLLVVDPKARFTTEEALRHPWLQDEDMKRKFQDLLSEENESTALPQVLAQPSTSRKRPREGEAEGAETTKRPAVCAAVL
Sequence of GSK-3-α (P49840 whole entry): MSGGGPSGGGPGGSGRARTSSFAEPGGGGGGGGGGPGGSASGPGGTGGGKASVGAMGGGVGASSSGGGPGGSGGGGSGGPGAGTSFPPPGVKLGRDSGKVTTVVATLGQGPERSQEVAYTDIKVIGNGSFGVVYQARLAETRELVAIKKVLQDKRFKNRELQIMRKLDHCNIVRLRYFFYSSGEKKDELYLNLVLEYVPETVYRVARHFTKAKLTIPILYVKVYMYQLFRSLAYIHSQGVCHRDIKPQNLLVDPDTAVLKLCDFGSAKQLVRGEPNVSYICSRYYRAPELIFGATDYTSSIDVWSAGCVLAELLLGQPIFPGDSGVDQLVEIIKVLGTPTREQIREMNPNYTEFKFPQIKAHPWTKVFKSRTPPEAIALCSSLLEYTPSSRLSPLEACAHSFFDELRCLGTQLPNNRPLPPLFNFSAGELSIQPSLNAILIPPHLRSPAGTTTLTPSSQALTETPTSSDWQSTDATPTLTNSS
T2 sequence (P31749 whole entry): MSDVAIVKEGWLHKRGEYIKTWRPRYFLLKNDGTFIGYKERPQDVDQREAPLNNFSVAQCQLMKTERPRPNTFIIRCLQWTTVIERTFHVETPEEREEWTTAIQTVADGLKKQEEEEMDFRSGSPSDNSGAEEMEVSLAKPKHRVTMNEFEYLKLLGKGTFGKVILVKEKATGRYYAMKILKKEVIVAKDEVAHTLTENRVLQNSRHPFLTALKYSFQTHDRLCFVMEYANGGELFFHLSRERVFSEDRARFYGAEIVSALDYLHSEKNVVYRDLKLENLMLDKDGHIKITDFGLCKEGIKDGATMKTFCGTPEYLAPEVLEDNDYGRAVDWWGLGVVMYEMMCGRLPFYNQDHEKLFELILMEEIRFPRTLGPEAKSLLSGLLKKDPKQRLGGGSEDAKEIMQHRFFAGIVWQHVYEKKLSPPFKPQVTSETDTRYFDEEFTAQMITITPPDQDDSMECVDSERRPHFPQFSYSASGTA

Activity (AKT1)	Activity (CHEK2)	Activity (KIT)	SMILES	other results
			COc1ccc(OC)c(-c2csc(N(CCc3ccc(OC)c(OC)c3)C(=O)CCC(=O)O)n2)c1 [4-((3,4-dimethoxyphenethyl)(4-(2,5-dimethoxyphenyl)thiazol-2-yl)amino)-4-oxobutanoic acid]	Activity (GSK-3-α): GSK-3-α
			COc1ccc(OC)c(-c2csc(N(Cc3ccccc3)C(=O)CCC(=O)O)n2)c1 [4-(benzyl(4-(2,5-dimethoxyphenyl)thiazol-2-yl)amino)-4-oxobutanoic acid]	Activity (AURORA-A): AURORA-A
AKT1	CHEK2		CN1CCN(CCCN(C(=O)c2cccs2)c2nc(-c3ccccc3)cs2)CC1 [N-(3-(4-methylpiperazin-1-yl)propyl)-N-(4-phenylthiazol-2-yl)thiophene-2-carboxamide]	
AKT1	CHEK2		CCN(CC)CCCN(C(=O)c1ccccc1F)c1nc(-c2cc(OC)ccc2OC)cs1 [N-(3-(diethylamino)propyl)-N-(4-(2,5-dimethoxyphenyl)thiazol-2-yl)-2-fluorobenzamide]	
AKT1	CHEK2		CN(C)CCCN(C(=O)c1ccccc1F)c1nc(-c2ccccc2)cs1 [N-(3-(dimethylamino)propyl)-2-fluoro-N-(4-phenylthiazol-2-yl)benzamide]	
AKT1		KIT	O=C(c1cccs1)N(CCCN1CCOCC1)c1nc(-c2ccncc2)cs1 [N-(3-morpholinopropyl)-N-(4-(pyridin-4-yl)thiazol-2-yl)thiophene-2-carboxamide]	
			CC(=O)N(CCCN1CCOCC1)c1nc(-c2ccccc2)cs1 [N-(3-morpholinopropyl)-N-(4-phenylthiazol-2-yl)acetamide]	Activity (GSK-3-α): GSK-3-α
AKT1	CHEK2		COc1ccc(OC)c(-c2csc(N(CCCN3CCN(C)CC3)C(=O)c3ccco3)n2)c1 [N-(4-(2,5-dimethoxyphenyl)thiazol-2-yl)-N-(3-(4-methylpiperazin-1-yl)propyl)furan-2-carboxamide]	
AKT1	CHEK2		COc1ccc(OC)c(-c2csc(N(CCCN(C)C)C(=O)c3ccccc3F)n2)c1 [N-(4-(2,5-dimethoxyphenyl)thiazol-2-yl)-N-(3-(dimethylamino)propyl)-2-fluorobenzamide]	
			COc1ccc(OC)c(-c2csc(N(CCCN(C)C)C(C)=O)n2)c1 [N-(4-(2,5-dimethoxyphenyl)thiazol-2-yl)-N-(3-(dimethylamino)propyl)acetamide]	Activity (GSK-3-α): GSK-3-α
AKT1	CHEK2		COc1ccc(OC)c(-c2csc(N(CCCN(C)C)C(=O)c3cccs3)n2)c1 [N-(4-(2,5-dimethoxyphenyl)thiazol-2-yl)-N-(3-(dimethylamino)propyl)thiophene-2-carboxamide]	
AKT1		KIT	O=C(c1cccs1)N(CCCN1CCOCC1)c1nc(-c2ccnc(Cl)c2)cs1 [N-(4-(2-chloropyridin-4-yl)thiazol-2-yl)-N-(3-morpholinopropyl)thiophene-2-carboxamide]	
AKT1		KIT	O=C(c1cccs1)N(CCCN1CCOCC1)c1nc(-c2ccc3c(c2)OCCCO3)cs1 [N-(4-(3,4-dihydro-2H-benzo[b][1,4]dioxepin-7-yl)thiazol-2-yl)-N-(3-morpholinopropyl)thiophene-2-carboxamide]	
AKT1		KIT	N#Cc1cccc(-c2csc(N(CCCN3CCOCC3)C(=O)c3cccs3)n2)c1 [N-(4-(3-cyanophenyl)thiazol-2-yl)-N-(3-morpholinopropyl)thiophene-2-carboxamide]	Activity (GSK-3-α): GSK-3-α
		KIT	COc1ccc(-c2csc(N(CCCN3CCOCC3)C(=O)c3c(C)noc3C)n2)cc1 [N-(4-(4-methoxyphenyl)thiazol-2-yl)-3,5-dimethyl-N-(3-morpholinopropyl)isoxazole-4-carboxamide]	Activity (ZAP70): ZAP70
		KIT	COc1ccc(-c2csc(N(CCCN3CCOCC3)C(=O)c3ccc(SC)s3)n2)cc1 [N-(4-(4-methoxyphenyl)thiazol-2-yl)-5-(methylthio)-N-(3-morpholinopropyl)thiophene-2-carboxamide]	Activity (ZAP70): ZAP70
AKT1		KIT	COc1ccc(-c2csc(N(CCCN3CCOCC3)C(=O)c3ccc(C)o3)n2)cc1 [N-(4-(4-methoxyphenyl)thiazol-2-yl)-5-methyl-N-(3-morpholinopropyl)furan-2-carboxamide]	
AKT1	CHEK2		COc1ccc(-c2csc(N(CCCN3CCN(C)CC3)C(=O)c3ccccc3)n2)cc1 [N-(4-(4-methoxyphenyl)thiazol-2-yl)-N-(3-(4-methylpiperazin-1-yl)propyl)benzamide]	
			COc1ccc(-c2csc(N(CCCN3CCOCC3)C(=O)COc3ccccc3)n2)cc1 [N-(4-(4-methoxyphenyl)thiazol-2-yl)-N-(3-morpholinopropyl)-2-phenoxyacetamide]	Activity (GSK-3-α): GSK-3-α; Activity (DYRK2): DYRK2
AKT1			COc1ccc(-c2csc(N(CCCN3CCOCC3)C(=O)c3ccno3)n2)cc1 [N-(4-(4-methoxyphenyl)thiazol-2-yl)-N-(3-morpholinopropyl)isoxazole-5-carboxamide]	Activity (AURORA-A): AURORA-A
